From US5076973A, “Synthesis of dolastatin 3” (Arizona Board of Regents, priority 1988, dated 1991)

Experiment: Stability in solution and in storage
Assay type: physicochemical

With `CC(C)C[C@@H]1NC(=O)[C@@H]2CCCN2C(=O)[C@H](C(C)C)NC(=O)c2csc(n2)CNC(=O)c2csc(n2)[C@H](CCC(N)=O)NC1=O` [dolastatin 3, Cyclo-[L-Val-L-Pro-L-Leu-L-(gln)Thz-(gly)Thz]] the “Stability / decomposition in solution” value (in solution, especially in chloroform) was “tendency to undergo decomposition in solution” and the Stability in storage (storage of isolated natural sample) was “decomposed in storage”.
